Test results from US6713665B2, “Maize NPR1 promoter and methods of use in plant gene expression” (Pioneer Hi-Bred International, Inc., priority 1999, dated 2004).

System: PR1#81::GUS
Test: Effects of defense elicitors on PR1#81::GUS expression in bombarded GS3 immature embryos
Assay type: cell-based, maize
Conditions: 1 mM salicylic acid or 0.1 mM jasmonic acid, 20-24 h; for PR1#81::GUS expression in the absence of exogenous NPR1: PR1#81::GUS alone; for PR1#81::GUS expression in the presence of exogenous NPR1: co-bombarded with Ubi::NPR1
Procedure: To evaluate the effects of defense elicitors on PR1#81::GUS expression with or without overexpression of NPR1, three experiments with a total of five replications were performed. GS3 immature embryos were bombarded with either PRI#81::GUS alone or in combination with Ubi::NPR1. Twenty-four hours after bombardment the embryos were treated with either 50 µg/ml of chitosan, 1 mM salicylic acid, or 0.1 mM jasmonic acid diluted in liquid osmotic medium. The embryos were then cultured at 28° C. for twenty to twenty-four hours before the histochemical GUS staining at 37° C. Visual observation of blue spots by histochemical GUS staining was used for interpretation of the transient assay results.

| SMILES | PR1#81::GUS expression in the absence of exogenous NPR1 | PR1#81::GUS expression in the presence of exogenous NPR1 |
| --- | --- | --- |
| CC/C=C\C[C@H]1C(=O)CC[C@@H]1CC(=O)O [jasmonic acid] | suppressed | suppressed |
| O=C(O)c1ccccc1O [salicylic acid] | up regulated | up regulates |
